Columns and labels:
Assay type in all cases: cell-based
[1] = system: dermatophytes, fungi producing mildew spots and material-damaging fungi; test: Fungistatic activity, overall result; conditions: by comparison with the reference preparation
Procedure: (§1) 1×1 cm prewashed and autoclaved test specimens of standard cotton cloth to DIN 53919 (WfK-Testgewebe GmbH, Adlerstr. 42, Krefeld) were placed in the test solutions for 15 minutes, removed under sterile conditions and dried for 14 h at room temperature. 0.1 ml inoculation suspensions of the test fungi mentioned above were inoculated into malt agar in a petri dish and, after the agar had solidified, 0.1 ml was spread over the agar surface with a spatula.
(§2) The test specimens impregnated with the test solutions were then placed on the agar surface under sterile conditions and the dishes were incubated for 7 days at 25° C. The inhibiting effect was then evaluated to the following scheme: […]

[2] = system: Cladosporium cladosporioides, DSM 62121; test: Fungicidal activity by the DGHM germ carrier test; parameters: key: +: living culture; −: dead culture
Procedure: (§3) Candida albicans, ATCC 10231 (precultured on CaSo agar, 4 d/25° C.), Aspergillus niger, ATCC 6275 (precultured on malt agar, 8d/25° C.), Trichophyton mentagrophytes, ATCC 9533 (precultured on malt agar, 8d/25° C.), Cladosporium cladosporioides, DSM 62121 (precultured on malt agar, 8d/25° C.), Epicoccum nigrum, self-isolate (precultured on malt agar, 8d/25°).
(§4) The inocula were obtained by floating off the preculture plates with 0.05% Tween®80 and had the following germ contents:
(§5) The test was carried out under the Richtlinien für die Prüfung und Bewertung chemischer Desinfektionsverfahren (Guidelines for the Testing and Evaluation of Chemical Disinfection Processes) of the Deutsche Gesellschaft für Hygiene und Mikrobiologie (DGHM), Gustav Fischer Verlag, 1981:
(§6) 16 prewashed and autoclaved test specimens were placed in the above-mentioned inoculation suspensions of the test fungi and left therein for 15 minutes during which they were turned over several times. The test specimens thus contaminated were then transferred to empty Petri dishes where 10 ml of the test solutions were poured over them. After contact times of 60 and 120 minutes at 20° C., two of the test specimens were removed, briefly transferred to 10 ml of DGHM inactivator solution and then inoculated onto CaSo plates (Candida) or malt agar plates (other test fungi). Incubation lasted 7 days at 25° C. and was followed by qualitative evaluation, i.e. growth yes (+) or no (−).

[3] = system: Epicoccum nigrum, self-isolate; test: Fungicidal activity by the DGHM germ carrier test; parameters: key: +: living culture; −: dead culture
Procedure: as §3, §4, §5, §6

[4] = system: Candida albicans, ATCC 10231; test: Fungicidal activity by the DGHM germ carrier test; parameters: key: +: living culture; −: dead culture
Procedure: as §3, §4, §5, §6

[5] = system: Aspergillus niger, ATCC 6275; test: Fungicidal activity by the DGHM germ carrier test; parameters: key: +: living culture; −: dead culture
Procedure: as §3, §4, §5, §6

[6] = system: Trichophyton mentagrophytes, ATCC 9533; test: Fungicidal activity by the DGHM germ carrier test; parameters: key: +: living culture; −: dead culture
Procedure: as §3, §4, §5, §6

[7] = system: Cladosporium cladosporioides, DSM 62121; test: Fungistatic activity by the inhibition test; conditions: 7 days at 25° C.; for inhibiting effect evaluation: impregnated cotton specimens
Procedure: as §3, §4, §1, §2

[8] = system: Epicoccum nigrum, self-isolate; test: Fungistatic activity by the inhibition test; conditions: 7 days at 25° C.; for inhibiting effect evaluation: impregnated cotton specimens
Procedure: as §3, §4, §1, §2

[9] = system: Candida albicans, ATCC 10231; test: Fungistatic activity by the inhibition test; conditions: 7 days at 25° C.; for inhibiting effect evaluation: impregnated cotton specimens
Procedure: as §3, §4, §1, §2

[10] = system: Aspergillus niger, ATCC 6275; test: Fungistatic activity by the inhibition test; conditions: 7 days at 25° C.; for inhibiting effect evaluation: impregnated cotton specimens
Procedure: as §3, §4, §1, §2

[11] = system: Trichophyton mentagrophytes, ATCC 9533; test: Fungistatic activity by the inhibition test; conditions: 7 days at 25° C.; for inhibiting effect evaluation: impregnated cotton specimens
Procedure: as §3, §4, §1, §2

[12] = 100 ppm, contact time 60 mins. at 20° C.
[13] = 100 ppm, contact time 120 mins. at 20° C.
[14] = 500 ppm, contact time 60 mins. at 20° C.
[15] = 500 ppm, contact time 120 mins. at 20° C.
[16] = 750 ppm, contact time 60 mins. at 20° C.
[17] = 750 ppm, contact time 120 mins. at 20° C.

CCCCNC(=O)OCC#CI [IPBC, 3-Iodo-2-propinyl butyl carbamate]
fungistatic activity (overall) [1]: very good fungistatic activity
growth after contact (fungicidal activity) [2, 12]: 60 mins. +
growth after contact (fungicidal activity) [2, 13]: 120 mins. +
growth after contact (fungicidal activity) [2, 14]: 60 mins. −
growth after contact (fungicidal activity) [2, 15]: 120 mins. −
growth after contact (fungicidal activity) [2, 16]: 60 mins. −
growth after contact (fungicidal activity) [2, 17]: 120 mins. −
growth after contact (fungicidal activity) [3, 12]: 60 mins. +
growth after contact (fungicidal activity) [3, 13]: 120 mins. +
growth after contact (fungicidal activity) [3, 14]: 60 mins. −
growth after contact (fungicidal activity) [3, 15]: 120 mins. −
growth after contact (fungicidal activity) [3, 16]: 60 mins. −
growth after contact (fungicidal activity) [3, 17]: 120 mins. −
growth after contact (fungicidal activity) [4, 12]: 60 mins. +
growth after contact (fungicidal activity) [4, 13]: 120 mins. +
growth after contact (fungicidal activity) [4, 14]: 60 mins. +
growth after contact (fungicidal activity) [4, 15]: 120 mins. +
growth after contact (fungicidal activity) [4, 16]: 60 mins. +
growth after contact (fungicidal activity) [4, 17]: 120 mins. +
growth after contact (fungicidal activity) [5, 12]: 60 mins. +
growth after contact (fungicidal activity) [5, 13]: 120 mins. +
growth after contact (fungicidal activity) [5, 14]: 60 mins. +
growth after contact (fungicidal activity) [5, 15]: 120 mins. +
growth after contact (fungicidal activity) [5, 16]: 60 mins. +
growth after contact (fungicidal activity) [5, 17]: 120 mins. +
growth after contact (fungicidal activity) [6, 12]: 60 mins. +
growth after contact (fungicidal activity) [6, 13]: 120 mins. +
growth after contact (fungicidal activity) [6, 14]: 60 mins. −
growth after contact (fungicidal activity) [6, 15]: 120 mins. −
growth after contact (fungicidal activity) [6, 16]: 60 mins. −
growth after contact (fungicidal activity) [6, 17]: 120 mins. −
inhibition zone ([7]; 100 ppm test solution): 1 mm
inhibiting effect evaluation ([7]; 100 ppm test solution): 0/0
inhibition zone ([7]; 500 ppm test solution): 5-7 mm
inhibiting effect evaluation ([7]; 500 ppm test solution): 0/0
inhibition zone ([7]; 750 ppm test solution): 5-7 mm
inhibiting effect evaluation ([7]; 750 ppm test solution): 0/0
inhibition zone ([8]; 100 ppm test solution): 5-9 mm
inhibiting effect evaluation ([8]; 100 ppm test solution): 0/0
inhibition zone ([8]; 500 ppm test solution): 11-14 mm
inhibiting effect evaluation ([8]; 500 ppm test solution): 0/0
inhibition zone ([8]; 750 ppm test solution): 12-15 mm
inhibiting effect evaluation ([8]; 750 ppm test solution): 0/0
inhibiting effect evaluation ([9]; 100 ppm test solution): 1/1
inhibition zone ([9]; 500 ppm test solution): 3-5 mm
inhibiting effect evaluation ([9]; 500 ppm test solution): 0/0
inhibition zone ([9]; 750 ppm test solution): 3-5 mm
inhibiting effect evaluation ([9]; 750 ppm test solution): 0/0
inhibition zone ([10]; 100 ppm test solution): 3-5 mm
inhibiting effect evaluation ([10]; 100 ppm test solution): 0/0
inhibition zone ([10]; 500 ppm test solution): 9-11 mm
inhibiting effect evaluation ([10]; 500 ppm test solution): 0/0
inhibition zone ([10]; 750 ppm test solution): 10-12 mm
inhibiting effect evaluation ([10]; 750 ppm test solution): 0/0
inhibition zone ([11]; 100 ppm test solution): 3-6 mm
inhibiting effect evaluation ([11]; 100 ppm test solution): 0/0
inhibition zone ([11]; 500 ppm test solution): 12-15 mm
inhibiting effect evaluation ([11]; 500 ppm test solution): 0/0
inhibition zone ([11]; 750 ppm test solution): 15-18 mm
inhibiting effect evaluation ([11]; 750 ppm test solution): 0/0

— patent publication US20030166483A1, “Use of 3-iodine-2-propinyl-carbamates as antimicrobial active agent” (priority 2003, published 2003)
